Reference: US8735353B2, “Polypeptides and uses thereof” (priority 2009, dated 2014)

Columns and labels:
LPS-induced shock = experiment: LPS model in vivo, E. coli LPS (Example B); set-up: species or system C57BL/6 mice
Method: Male C57BL/6 mice (8 weeks, 21+/−5 g), were injected intraperitoneally with 18 mg E. coli 0111:B4 LPS or 36 mg P. aeruginosa LPS (Sigma) per kg of body weight. […] Survival and status was followed during seven days. For SEM and histochemistry, mice were sacrificed 20 h after LPS challenge, and lungs, liver, kidney, and spleen were removed and fixed. For determination of cytokine levels in mouse plasma, animals were sacrificed 8 h and 20 h after LPS injection. The blood was collected immediately by cardiac puncture. These experiments were approved by the Laboratory Animal Ethics Committee of Malmö/Lund.
Mouse blood (anti-coagulated with EDTA) was taken by cardiac puncture and analysed with the VetScan HM5 System (TRIOLAB). The number of white blood cells, percentages of lymphocytes, neutrophils, monocytes and platelets were determined.
(§1) The cytokines IL-6, IL-10, MCP-1, INF-γ, and TNF-α were measured in cell culture supernatants from RAW264.7 cells and plasma from mice injected with LPS or P. aeruginosa (with or without peptide treatment) using the Cytometric bead array; Mouse Inflammation Kit (Becton Dickinson AB) according to the manufacturer's instructions. All plasma samples were stored at −20° C. before the analysis.
For scanning electron microscopy lungs were taken 20 h after LPS injection. […] Specimens were washed with cacodylate buffer, and dehydrated with an ascending ethanol series from 50% (vv) to absolute ethanol. The specimens were then subjected to critical-point drying in carbon dioxide, with absolute ethanol as intermediate solvent, mounted, on aluminium holders, sputtered with 30 nm palladium/gold and examined in a JEOL JSM-350 scanning electron microscope

[1] = system: human peripheral blood monocytes; experiment: TNF-α assay in human peripheral blood monocytes; format: cell-based; conditions: 10 ng/ml E. coli LPS
Method: Cell supernatants were collected and stored at −20° C. […] Plasma was obtained by centrifuging at 400 g, 10 min and stored at −20° C. The TNF-α level was measured using a human TNF-Elisa Kit (Invitrogen).

human monocytes = experiment: Clotting time, LPS-stimulated human monocytes added to citrate plasma; format: cell-based; conditions: concentrations similar to physiological thrombin (1.5 μM)
Method: Whole blood was incubated with 10 ng/ml E. coli LPS+/−the indicated concentrations of peptide. The clotting reaction in human citrated plasma was initiated by adding the blood cells. […] Human monocytes were stimulated with LPS and/or peptides, and the clotting times were determined by adding the treated cells to human citrate plasma supplemented with CaCl2
(§2) All clotting times were analyzed using a coagulometer (Amelung, Lemgo, Germany). […] (PT-thromboplastin reagent (Trinity Biotech), TCT: Thrombin reagent (Technoclone)). To record the activated partial thromboplastin time (aPTT), 100 μl of a kaolin-containing solution (Technoclone) was add to the plasma-peptide mix and incubated for 200 sec before clot formation was initiated by adding 100 μl of 30 mM fresh CaCl2 solution. […] Cells were washed and resuspended in 100 μl PBS. Hundred microliter of fresh human citrate plasma were reconstituted with 100 μl of fresh 30 mM CaCl2 solution and pre-warmed for 60 sec. The clot formation was started by adding the hPBMNC. The same procedure was used to determine clotting times for whole blood.

RAW 264.7 macrophages = experiment: LPS effects on macrophages in vitro, NO production (Griess reaction); format: cell-based, mouse; conditions: for effect on NO production of LPS-stimulated macrophages: RAW 264.7, LPS
Method: 3.5×10^5 cells were seeded in 96-well tissue culture plates (Nunc, 167008) in phenol red-free DMEM (Gibco) supplemented with 10% FBS and antibiotics. Following 6 hours of incubation to permit adherence, cells were stimulated with 100 or 10 ng/mL E. coli (0111:B4) or P. aeruginosa LPS (Sigma), with and without peptide of various doses. The levels of NO in culture supernatants were determined after 24 hours from stimulation using the Griess reaction [38]. Briefly, nitrite, a stable product of NO degradation, was measured by mixing 50 μl of culture supernatants with the same volume of Griess reagent (Sigma, G4410) and reading absorbance at 550 nm after 15 min. Phenol-red free DMEM with FBS and antibiotics were used as a blank. A standard curve was prepared using 0-80 μM sodium nitrite solutions in ddH2O.
3.5×10^5 RAW 264.7 cells were seeded in 96-well tissue culture plates (Nunc no. 167008) in phenol red-free DMEM (Gibco) supplemented with 10% FBS containing 1% Anti-Anti (Invitrogen). […] The level of NO in culture supernatants was determined after a period of 20 hours using the Griess reaction (27)ref. Briefly, Nitrite, a stable product of NO degradation, was measured by mixing 50 μl of culture supernatants with the same volume of Griess reagent (Sigma, G4410), and reading absorbance at 550 nm after 15 min. Phenol-red free DMEM with FBS and antibiotics were used as a blank. A standard curve was prepared using sodium nitrite at 0-80 μM in ddH2O.
3.5×10^5 cells were seeded in 96-well tissue culture plates (Nunc, 167008) in phenol red-free DMEM (Gibco) supplemented with 10% FBS and antibiotics. […] The levels of NO in culture supernatants were determined after 24 hours from stimulation using the Griess reaction [25]. Briefly, nitrite, a stable product of NO degradation, was measured by mixing 50 μl of culture supernatants with the same volume of Griess reagent (Sigma, G4410) and reading absorbance at 550 nm after 15 min. […]

human citrate plasma = experiment: Clotting assays in plasma (aPTT, PT, TCT); format: biochemical; conditions: 20 μM peptide
Method: as §2

RAW 264.7 cells = experiment: Cytokine release from LPS-stimulated RAW 264.7 cells; format: cell-based, mouse; conditions: 10 ng/ml E. coli LPS
Method: RAW 264.7 cells were stimulated with 10 ng/ml E. coli LPS and cytokines were analysed in the cell supernatants.
as §1

E. coli = experiment: Radial diffusion assay (RDA); format: cell-based
Method: Essentially as described earlier, bacteria were grown to mid-logarithmic phase in […] of full-strength (3% w/v) trypticase soy broth (TSB) (Becton-Dickinson). The microorganisms were then washed once with 10 mM Tris, pH 7.4. Subsequently, 4×10^8 cfu were added to 15 ml of the underlay agarose gel, consisting of 0.03% (w/v) TSB, 1% (w/v) low electroendosmosis type (EEO) agarose (Sigma-Aldrich) and 0.02% (v/v) Tween 20 (Sigma-Aldrich). The underlay was poured into a Ø 144 mm petri dish. After agarose solidification, 4 mm-diameter wells were punched and 6 μl peptide solution of required concentration added to each well. Plates were incubated at 37° C. for 3 h to allow peptide diffusion. The underlay gel was then covered with 15 ml of molten overlay (6% TSB and 1% Low-EEO agarose in distilled H2O). Antimicrobial activity of a peptide was visualized as a zone of clearing around each well after 18-24 h of incubation at 37° C.
Essentially as described earlier bacteria were grown to mid-logarithmic phase in 10 ml of full-strength (3% w/v) trypticase soy broth (TSB) (Becton-Dickinson, Cockeysville, Md.). The microorganisms were then washed once with 10 mM Tris, pH 7.4. […]

E. coli ATCC 25922 = experiment: Viable count assay; format: cell-based; conditions: E. coli ATCC 25922, proteins and peptides at 3 and 6 μM
Method: E. coli bacteria were grown to mid-logarithmic phase in Todd-Hewitt (TH) medium. They were then washed and diluted in 10 mM Tris, pH 7.4 containing 5 mM glucose. […] To quantify the bactericidal activity, serial dilutions of the incubation mixtures were plated on TH agar, followed by incubation at 37° C. overnight and the number of colony-forming units was determined. 100% survival was defined as total survival of bacteria in the same buffer and under the same condition in the absence of peptide.
E. coli ATCC 25922 bacteria were grown to mid-logarithmic phase in Todd-Hewitt (TH) medium. Bacteria were washed and re-suspended in 10 mM Tris, pH 7.4 containing 5 mM glucose. […] Serial dilutions of the incubation mixtures were plated on TH agar, followed by incubation at 37° C. overnight and cfu determination.
E. coli ATCC 25922 bacteria were grown to mid-logarithmic phase in Todd-Hewitt (TH) medium (Becton and Dickinson, Maryland, USA). The microorganisms were then washed and diluted in 10 mM Tris, pH 7.4 containing 5 mM glucose. […] To quantify the bactericidal activity, serial dilutions of the incubation mixtures were plated on TH agar, followed by incubation at 37° C. overnight and the number of colony-forming units was determined. […] Significance was determined using the statistical software SigmaStat (SPSS Inc., Chicago, Ill., USA).

## HVFRLKKWIQKVIDQFGE (HVF18) [endogenously produced C-terminal thrombin peptide]
LPS-induced shock; 0.5 mg peptide, followed 7 days
  weight: full recovery of weight
LPS-induced shock; 18 mg/kg E. coli LPS i.p., 0.5 mg peptide 30 minutes later
  survival in LPS-induced shock: 100%
LPS-induced shock; 8 and 20 h after LPS injection, 0.5 mg peptide
  proinflammatory IL-6, IFN-γ, TNF-α, MCP-1 in blood: significant reductions
LPS-induced shock; 8 and 20 h after LPS, 0.5 mg peptide
  platelet counts: significantly increased platelets
LPS-induced shock; 8 h after LPS injection
  IL-10 in blood: increase in IL-10
[1]
  TNF-α production: damped TNF-α production
Human monocytes
  clotting time with LPS-stimulated monocytes (TF-mediated coagulation): less potent
RAW 264.7 macrophages; RAW 264.7, 10 ng/ml LPS
  concentration completely eliminating LPS-induced NO-responses: much higher doses
Human citrate plasma
  activated partial thromboplastin time (aPTT): significantly prolong
  prothrombin time (PT): not significantly affected
  thrombin clotting time (TCT): not significantly affected
RAW 264.7 cells
  effect on IL-10: significant up-regulation of IL-10
RAW 264.7 cells; peptide 10 μM
  effect on cytokines at 10 μM: not

## VFRLKKWIQKVI (12-mer thrombin-derived peptide) [VFR12]
E. coli; E. coli ATCC 25922, 0.15M NaCl, peptide at 100 μM
  bactericidal potency in RDA at high salt: retained good bactericidal potency
RAW 264.7 macrophages
  effect on NO production of LPS-stimulated macrophages: not able to block LPS effects

## VFRLKKWIQKVIDQFGE (VFR17)
E. coli ATCC 25922
  antibacterial activity in viable count assay: significant antibacterial activities

## WFFFYYLIIGGGVVTHQQRKKKKDE (WFF25 peptide) [control peptide, same composition as GKY25, amino acids sorted after hydrophobicity, reference compound]
LPS-induced shock; 500 μg i.p., followed 7 days
  survival in LPS-induced shock: does not increase survival
RAW 264.7 macrophages
  effect on NO production of LPS-stimulated macrophages: did not show anti-inflammatory effects

## thrombin
E. coli; E. coli, low-salt conditions, not digested with neutrophil elastase
  antimicrobial activity of intact protein in RDA: inactive
